Measurements reported in ChEMBL document CHEMBL3351650, “Anti-tyrosinase, antioxidant, and antibacterial activities of novel 5-hydroxy-4-acetyl-2,3-dihydronaphtho[1,2-b]furans” (Eur J Med Chem, 2014).
Converted amounts (≈) assume the structure as drawn.

How the values were obtained:
Staphylococcus aureus = assay: Antibacterial activity against Staphylococcus aureus KCTC-1916 after 24 hrs by twofold dilution method; type: functional; conditions: KCTC-1916, 24 h
Tyrosinase [1] = biological target: T1, Tyrosinase (Agaricus bisporus, UniProt O42713)
T1 sequence (O42713 whole entry): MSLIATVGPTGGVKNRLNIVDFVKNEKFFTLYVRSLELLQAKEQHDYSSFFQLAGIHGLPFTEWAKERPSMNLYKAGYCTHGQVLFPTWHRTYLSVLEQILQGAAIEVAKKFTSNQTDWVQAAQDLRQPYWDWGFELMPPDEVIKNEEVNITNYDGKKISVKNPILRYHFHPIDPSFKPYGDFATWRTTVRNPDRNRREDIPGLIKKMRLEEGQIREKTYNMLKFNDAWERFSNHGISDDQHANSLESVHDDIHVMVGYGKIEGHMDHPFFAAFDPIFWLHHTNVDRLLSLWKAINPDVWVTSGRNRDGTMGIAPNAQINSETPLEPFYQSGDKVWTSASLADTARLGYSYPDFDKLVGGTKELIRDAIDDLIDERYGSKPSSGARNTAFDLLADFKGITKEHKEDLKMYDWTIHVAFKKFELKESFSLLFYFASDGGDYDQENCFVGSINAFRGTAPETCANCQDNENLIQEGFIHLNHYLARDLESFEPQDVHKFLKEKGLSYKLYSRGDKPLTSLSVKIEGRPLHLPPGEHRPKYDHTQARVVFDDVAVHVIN
Description: Inhibition of mushroom tyrosinase using L-DOPA as substrate after 2 mins by spectrophotometry

Escherichia coli = assay: microbe, parasite or virus in culture; conditions: KCTC-1924, 24 h
Description: Antibacterial activity against Escherichia coli KCTC-1924 after 24 hrs by twofold dilution method

Tyrosinase [2] = biological target: T1, Tyrosinase; assay: Competitive inhibition of mushroom tyrosinase using L-DOPA as substrate after 2 mins by Lineweaver-Burk plot

Row | Structure (SMILES) | MIC (Staphylococcus aureus) [µg/mL] | IC50 (Tyrosinase [1]) [µM] | IC50 [µg/mL] | MIC (Escherichia coli) [µg/mL] | Ki (Tyrosinase [2]) [µM]
1 | CCOC1Cc2c(C(C)=O)c(O)c3ccccc3c2O1 (stereo unspecified) | 0.5 (≈ 1.84 µM) | 305 | 25.11 (≈ 92.2 µM) | 16 (≈ 58.8 µM) | 
2 | CCCCOC1Cc2c(C(C)=O)c(O)c3ccccc3c2O1 (stereo unspecified) | 8 (≈ 26.6 µM) | 232 | 5.01 (≈ 16.7 µM) | 0.5 (≈ 1.66 µM) | 
3 | COC1(C)Cc2c(C(C)=O)c(O)c3ccccc3c2O1 (stereo unspecified) | 0.5 (≈ 1.84 µM) | > 367 | 31.47 (≈ 116 µM) | 16 (≈ 58.8 µM) | 
4 | CC(=O)c1c2c(c3ccccc3c1O)OC(C)(c1ccccc1)C2 (stereo unspecified) | 32 (≈ 101 µM) | > 314 | 77.62 (≈ 244 µM) | 2 (≈ 6.28 µM) | 
5 | COc1ccc(C2Cc3c(C(C)=O)c(O)c4ccccc4c3O2)cc1 (stereo unspecified) | 32 (≈ 95.7 µM) | > 299 | > 100 |  | 
6 | CCO[C@@H]1Oc2c(c(C(C)=O)c(O)c3ccccc23)[C@@H]1C (relative stereo) | 0.5 (≈ 1.75 µM) | > 349 | 62.51 (≈ 218 µM) | 32 (≈ 112 µM) | 
7 | CC(=O)c1c2c(c3ccccc3c1O)O[C@H]1OCC[C@@H]21 (relative stereo) | 8 (≈ 29.6 µM) | > 370 | > 100 | 2 (≈ 7.4 µM) | 

Compounds with a lower IC50 (Tyrosinase [1]), results first:

Row | MIC (Staphylococcus aureus) [µg/mL] | IC50 (Tyrosinase [1]) [µM] | IC50 [µg/mL] | MIC (Escherichia coli) [µg/mL] | Ki (Tyrosinase [2]) [µM] | Structure (SMILES)
8 | 32 (≈ 107 µM) | 198 | 6.3 (≈ 21 µM) |  |  | CC(=O)c1c2c(c3ccccc3c1O)OC(OCC(C)C)C2 (stereo unspecified)
9 | 0.5 (≈ 1.76 µM) | 176 | > 100 | 32 (≈ 113 µM) |  | CC(=O)c1c2c(c3ccccc3c1O)O[C@H]1OCCC[C@@H]21 (relative stereo)
10 |  | 107 | > 100 |  |  | CCO[C@H]1Oc2c(c(C(C)=O)c(O)c3ccccc23)[C@@H]1C (relative stereo)
11 | 0.5 (≈ 1.75 µM) | 31.1 | 3.33 (≈ 11.6 µM) | 0.5 (≈ 1.75 µM) | 11.2 | CCCOC1Cc2c(C(C)=O)c(O)c3ccccc3c2O1 (stereo unspecified)
